Measured values from patent US20180244611A1, “Modulators of the Cystic Fibrosis Transmembrane Conductance Regulator Protein and Methods of Use” (AbbVie S.à.r.l., priority 2017, published 2018).

Experiments:
F508delCFTR [1] = biological target: T1, F508delCFTR (Homo sapiens, UniProt P13569, DEL508-508); assay: Cell Surface Expression-Horse Radish Peroxidase (CSE-HRP) assay, test compound without co-corrector; type: cell-based; conditions: for EC50: test compound without co-corrector;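 as to Maximum % activity (without co-corrector): percent of on-plate 2 µM positive control corrector response over DMSO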
T1 construct: expressed in transfected cells; host or cells: CFBE41o- human lung-derived epithelial cells (CFBE41o-F508delCFTR-HRP), doxycycline-inducible
Summary of the method: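 CFBE41o- cells expressing F508delCFTR with HRP in the fourth exofacial loop, induced with 0.5 μg/mL doxycycline for 72 h at 37° C, then exposed to compound alone for 18-24 h at 33° C, 8-point 3-fold series from 20 μM. Surface HRP read by luminol luminescence, normalized to positive corrector control versus DMSO; EC50 from variable-slope sigmoidal fit of three replicate plates.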

F508delCFTR [2] = biological target: T1, F508delCFTR; assay: Cell Surface Expression-Horse Radish Peroxidase (CSE-HRP) assay, test compound with co-corrector; type: cell-based; conditions: for Maximum % activity (with co-corrector): maximum at any tested concentration;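 as to Maximum % activity (with co-corrector): percent of 2 µM positive control corrector over DMSO; co-corrector is that same compound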
Summary of the method: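 CFBE41o- cells expressing F508delCFTR with HRP in the fourth exofacial loop, induced with 0.5 μg/mL doxycycline for 72 h, then treated 18-24 h at 33° C. with compound (8 points, top 20 μM, 3-fold) plus 2 μM co-corrector. Surface HRP read by luminol luminescence; activity normalised to positive control, EC50 from variable-slope sigmoidal fit.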

[3] = maximum at any tested concentration, normalized to positive control, without co-corrector
[4] = normalized to positive control, with 2 μM co-corrector
[5] = maximum at any tested concentration, normalized to on-plate positive control, without co-corrector
[6] = CSE-HRP assay, test compound with 2 μM co-corrector
[7] = normalized to on-plate positive control, with 2 μM co-corrector

T1 sequence (P13569 with tags, fused parts or gaps DEL508-508): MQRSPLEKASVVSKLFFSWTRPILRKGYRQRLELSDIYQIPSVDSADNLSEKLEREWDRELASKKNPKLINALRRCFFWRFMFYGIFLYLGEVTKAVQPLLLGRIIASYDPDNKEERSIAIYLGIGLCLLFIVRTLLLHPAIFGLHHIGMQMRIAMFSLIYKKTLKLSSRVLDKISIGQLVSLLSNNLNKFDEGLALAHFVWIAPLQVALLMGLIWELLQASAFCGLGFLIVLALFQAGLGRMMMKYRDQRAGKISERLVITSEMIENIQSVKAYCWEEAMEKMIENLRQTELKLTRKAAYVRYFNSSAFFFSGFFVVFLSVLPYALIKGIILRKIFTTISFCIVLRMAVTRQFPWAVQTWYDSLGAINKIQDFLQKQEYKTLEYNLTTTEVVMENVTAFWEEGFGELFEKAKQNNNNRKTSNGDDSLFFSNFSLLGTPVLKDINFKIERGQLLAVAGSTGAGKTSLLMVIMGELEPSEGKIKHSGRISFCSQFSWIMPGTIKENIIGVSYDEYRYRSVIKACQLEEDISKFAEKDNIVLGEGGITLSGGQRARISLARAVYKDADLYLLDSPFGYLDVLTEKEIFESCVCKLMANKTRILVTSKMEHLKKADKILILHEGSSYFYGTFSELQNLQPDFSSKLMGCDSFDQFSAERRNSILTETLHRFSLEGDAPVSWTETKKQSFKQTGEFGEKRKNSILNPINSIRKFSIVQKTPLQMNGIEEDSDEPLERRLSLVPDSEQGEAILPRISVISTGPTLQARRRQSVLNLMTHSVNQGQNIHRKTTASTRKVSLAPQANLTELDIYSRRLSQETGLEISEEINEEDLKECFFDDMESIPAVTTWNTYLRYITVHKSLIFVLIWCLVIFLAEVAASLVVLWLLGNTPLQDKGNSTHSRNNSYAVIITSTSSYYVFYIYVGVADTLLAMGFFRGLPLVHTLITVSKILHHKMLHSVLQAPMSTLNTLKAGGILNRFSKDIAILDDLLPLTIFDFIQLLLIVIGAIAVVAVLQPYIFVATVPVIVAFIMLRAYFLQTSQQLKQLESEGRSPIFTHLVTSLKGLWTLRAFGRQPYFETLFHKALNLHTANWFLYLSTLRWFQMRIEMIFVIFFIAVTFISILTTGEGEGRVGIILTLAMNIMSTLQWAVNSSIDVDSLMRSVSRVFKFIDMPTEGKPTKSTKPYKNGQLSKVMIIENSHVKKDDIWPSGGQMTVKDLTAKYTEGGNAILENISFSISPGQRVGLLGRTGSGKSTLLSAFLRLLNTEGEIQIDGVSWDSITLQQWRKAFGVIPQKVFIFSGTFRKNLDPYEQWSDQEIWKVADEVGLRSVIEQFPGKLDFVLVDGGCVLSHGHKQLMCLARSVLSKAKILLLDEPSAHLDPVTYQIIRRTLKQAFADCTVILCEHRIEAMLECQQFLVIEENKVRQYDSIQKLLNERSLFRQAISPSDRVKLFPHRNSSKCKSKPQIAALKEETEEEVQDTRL

Molecule	Emax (F508delCFTR [1]; [3]) [%]	EC50 (F508delCFTR [1]) [µM]	Maximum % activity (with co-corrector) (F508delCFTR [2]; [4])	EC50 (F508delCFTR [2]; with 2 μM co-corrector) [µM]	EC50 (F508delCFTR [1]; CSE-HRP assay) [µM]	Emax (F508delCFTR [1]; [5]) [%]	EC50 (F508delCFTR [2]; [6]) [µM]	Maximum % activity (with co-corrector) (F508delCFTR [2]; [7])	Maximum % activity (without co-corrector) (F508delCFTR [1]; [3])
COc1ccc(Br)c2c1C(C(=O)NS(=O)(=O)c1cccc3cccnc13)CC2 (stereo not shown) [II-116]	≥ 150	3 to 10	+++ (≥350)	3 to 10	–	–	–	–	–
COc1ccc(-c2ccc(C)nc2)c2c1C(C(=O)NS(=O)(=O)c1cccc3ccccc13)CCC2 (stereo not shown) [III-167]	–	–	–	–	3 to 10	< 50	< 3	++ (≥150 and <350)	–
COc1ccc(C2CCC2)c2c1[C@H](C(=O)NS(=O)(=O)c1cccc3ccccc13)C2 (single isomer, unassigned) [Example I-107]	≥ 150	< 3	+++ (≥350)	< 3	–	–	–	–	–
O=C(C1CCCc2c(OCc3ccccc3)ccc(Br)c21)N(Cc1ccccc1)S(=O)(=O)c1cccc2ccccc12 (stereo not shown) [II-90]	< 50	≥ 10	+ (<150)	≥ 10	–	–	–	–	–
COc1ccc(Br)c2c1C(C(=O)NS(=O)(=O)c1cccnc1N)CC2 (stereo not shown) [III-159]	–	–	–	–	3 to 10	≥ 150	3 to 10	+++ (≥350)	–
CCC1(C(=O)NS(=O)(=O)c2cccc(Cl)c2Cl)CCc2c(Cl)cccc21 (stereo not shown) [II-107]	< 50	< 3	++ (≥150 and <350)	< 3	–	–	–	–	–
Cc1ccc(-c2cccc3c2CCC3C(=O)NS(=O)(=O)c2ccccc2C)o1 (stereo not shown) [III-103]	–	–	–	–	≥ 10	< 50	3 to 10	++ (≥150 and <350)	–
COc1ccc(C2CCC2)c2c1C(C(=O)NS(=O)(=O)c1cccc3ccccc13)CCC2 (stereo not shown) [Example I-69, 5-cyclobutyl-8-methoxy-N-(naphthalene-1-sulfonyl)-1,2,3,4-tetrahydronaphthalene-1-carboxamide]	≥ 150	< 3	+++ (≥350)	< 3	–	–	–	–	–
CCC1(C(=O)N(C)S(=O)(=O)c2cccc3ccccc23)CCc2c(Cl)cccc21 (stereo not shown) [Example III-150, 4-chloro-1-ethyl-N-methyl-N-(naphthalene-1-sulfonyl)-2,3-dihydro-1H-indene-1-carboxamide]	–	–	–	–	≥ 10	< 50	≥ 10	+ (<150)	–
Nc1cccc(S(=O)(=O)NC(=O)C2CCCc3cccc(Cl)c32)n1 (stereo not shown) [III-110]	–	–	–	–	≥ 10	< 50	≥ 10	+ (<150)	–
CCC1(C(=O)NS(=O)(=O)c2cccc(N3CCOCC3)c2C)CCc2c(Cl)cccc21 (stereo not shown) [III-172]	–	–	–	–	3 to 10	< 50	< 3	++ (≥150 and <350)	–
COc1ccc(Br)c2c1CC[C@H]2C(=O)NS(=O)(=O)c1cccc2ccccc12 [Example I-84, (1R)-7-bromo-4-methoxy-N-(naphthalene-1-sulfonyl)-2,3-dihydro-1H-indene-1-carboxamide]	≥ 150	3 to 10	+++ (≥350)	< 3	–	–	–	–	–
COc1cccc2c1[C@@H](C(=O)NS(=O)(=O)c1cccc3ncccc13)CC2(C)C [Example I-153, (1S)-7-methoxy-3,3-dimethyl-N-(quinoline-5-sulfonyl)-2,3-dihydro-1H-indene-1-carboxamide]	≥ 150	3 to 10	+++ (≥350)	< 3	–	–	–	–	–
COc1cccc2c1CCC2C(=O)NS(=O)(=O)c1cc(F)ccc1F (stereo not shown) [III-74]	< 50	≥ 10	+ (<150)	≥ 10	–	–	–	–	–
(1S)-7-chloro-1-methyl-N-(naphthalene-1-sulfonyl)-2,3-dihydro-1H-indene-1-carboxamide [Example I-26]	–	< 3	+++ (≥350)	< 3	–	–	–	–	++ (≥50 and <150)
Cc1ccccc1S(=O)(=O)NC(=O)C1CCc2c(-c3ccc(N4CCN(C)CC4)nc3)cccc21 (stereo not shown) [III-87]	< 50	≥ 10	+ (<150)	≥ 10	–	–	–	–	–
COc1ccc(C)c2c1CC[C@@H]2C(=O)NS(=O)(=O)c1cccc2ccccc12 [Example I-109, (1S)-4-methoxy-7-methyl-N-(naphthalene-1-sulfonyl)-2,3-dihydro-1H-indene-1-carboxamide]	≥ 150	3 to 10	+++ (≥350)	< 3	–	–	–	–	–
Cc1cc(-c2cccc3c2CCC3C(=O)NS(=O)(=O)c2ccccc2C)ccn1 (stereo not shown) [III-96]	–	–	–	–	≥ 10	< 50	≥ 10	+ (<150)	–
COc1ccc(-c2ccc(C3CC3)nc2)c2c1CCCC2C(=O)NS(=O)(=O)c1cccc2ccccc12 (stereo not shown) [II-131]	≥ 150	< 3	+++ (≥350)	< 3	–	–	–	–	–
COc1ccc(-c2ccccc2Oc2ccccc2)c2c1CCCC2C(=O)NS(=O)(=O)c1cccc2ccccc12 (stereo not shown) [II-99]	≥ 150	< 3	+++ (≥350)	< 3	–	–	–	–	–
O=C(NS(=O)(=O)c1cccc2ccccc12)C1CCCc2c(OC3COC3)ccc(Br)c21 (stereo not shown) [II-91]	50 to 150	3 to 10	+++ (≥350)	< 3	–	–	–	–	–
COC(=O)c1ccc(OC)c2c1CCC2C(=O)NS(=O)(=O)c1cccc2ccccc12 (stereo not shown) [III-184]	–	–	–	–	–	50 to 150	–	++ (≥150 and <350)	–
Cc1cnccc1-c1cccc2c1CCC2C(=O)NS(=O)(=O)c1ccccc1C (stereo not shown) [III-95]	–	–	–	–	≥ 10	< 50	≥ 10	+ (<150)	–
CC[C@@]1(C(=O)NS(=O)(=O)c2cccc3ccccc23)CCc2c(Cl)cccc21 [Example I-18, (1R)-4-chloro-1-ethyl-N-(naphthalene-1-sulfonyl)-2,3-dihydro-1H-indene-1-carboxamide]	≥ 150	< 3	+++ (≥350)	< 3	–	–	–	–	–
COc1cccc2c1CCC2C(=O)NS(=O)(=O)c1ccccn1 (stereo not shown) [III-84]	< 50	≥ 10	+ (<150)	≥ 10	–	–	–	–	–
Cc1ccccc1S(=O)(=O)NC(=O)C1CCc2c(-c3c[nH]nc3C)cccc21 (stereo not shown) [III-101]	–	–	–	–	≥ 10	< 50	≥ 10	+ (<150)	–
COc1ccc2c(c1OC)CCC2C(=O)NS(=O)(=O)c1ccccc1C (stereo not shown) [III-72]	< 50	≥ 10	+ (<150)	≥ 10	–	–	–	–	–
COc1cccc2c1CCC2C(=O)NS(=O)(=O)c1c(C)nc(O)nc1O (stereo not shown) [III-45]	< 50	≥ 10	+ (<150)	≥ 10	–	–	–	–	–
CCC1(C(=O)NS(=O)(=O)C2(C)CC2)CCc2c(Cl)cccc21 (stereo not shown) [III-128]	–	–	–	–	3 to 10	< 50	3 to 10	++ (≥150 and <350)	–
O=C(NS(=O)(=O)c1cccc2ccccc12)C1CCc2c(Br)ccc(OC(F)F)c21 (stereo not shown) [Example I-58, 4-bromo-7-(difluoromethoxy)-N-(naphthalene-1-sulfonyl)-2,3-dihydro-1H-indene-1-carboxamide]	≥ 150	< 3	+++ (≥350)	< 3	–	–	–	–	–
